Assay results taken from patent US20240024504A1, “SITE-SELECTIVE LYSINE ACETYLATION OF HUMAN IMMUNOGLOBULIN G AND IgG-RELATED PRODUCTS FOR IMMUNOTHERAPY” (The Chinese University of Hong Kong, priority 2022, published 2024).
Numbered stars: 1 amine (or outer) side, 2 acyl side, 3 side chain; on linkers, the order of the positions; unused ones are H or OH. Bridge positions count the residues as written; N and C are the ends. Square brackets hold non-standard residues; d marks the D form. Peptide text beside a SMILES is read from it. * marks the point of attachment. X1 = O=C(O)c1cc(NC(=S)*)ccc1-c1c2ccc(=O)cc-2oc2cc(O)ccc12; X4 = [N-]=[N+]=NCC(=O)Nc1ccc(N*)cc1; Dap = NC[C@H](N)C(=O)O; X3 = O=C(C[*:2])[*:1]; X2 = Oc1ccc(N*)cc1; βAla = NCCC(=O)O

How the values were obtained:
human IgG Fc = assay: Peptide-driven acetylation (labelling) of human IgG Fc, SDS-PAGE in-gel fluorescence / MALDI-TOF MS; assay type: biochemical; settings: for yield of the labeled Fc: MS peak area after Glu-C digestion (F11: in-gel fluorescence, ImageJ)
Description: (§1) FIG. 2A-2C Kinetic details of the acetylation reaction and hydrolysis of F1. (FIG. 2A) Reactions at different peptide-to-IgG Fc ratios. Reactions were performed in PBS buffer (pH 7.4) at 37° C. for 1 h. Protein loading in each lane is 2 μg. (FIG. 2B) Reaction kinetics. Reaction condition: 4 μM IgG Fc, 24 μM F1, PBS buffer (pH 7.4), at 37° C. The reactions were quenched with 1% SDS at different time points. After conducting an SPAAC reaction with DBCO-PEG4-TAMRA, the reactions were denatured and resolved by SDS-PAGE. Product conversion was quantified based on band-shift in the SDS-PAGE image. (FIG. 2C) Hydrolysis of peptide ester (24 μM) monitored by HPLC in pH 7.4 PBS buffer at 37° C.
FIG. 27A-27B The study of IgG Fc acetylation reaction with different payloads. (FIG. 27A) A set of reactive peptides with different acyl groups tested for labeling efficiency. (FIG. 27B) The yields of IgG Fc labeled by peptides at 37° C. Reaction condition: 4 μM IgG Fc, 24 μM peptide, in PBS buffer (pH 7.4) for 2 h or in borate buffer (pH 8.5) for 15 h, respectively. […] The yields were quantified by MS analysis with in-solution Glu-C digestion of modified Fc or by in-gel fluorescent image (FIGS. 27A-27B, […]).
(§2) IgG or IgG Fc labelling reactions. Unless otherwise noted, the final concentrations of proteins were 4 μM and peptides were 24 μM. The conjugation reactions were performed in PBS buffer (pH 7.4, 137 mM NaCl, 2.7 mM KCl, 10 mM Na2HPO4, 1.8 mM KH2PO4) at 37° C. for 1 h and stopped by 1% SDS. For copper-free click chemistry, the protein-peptide reaction mixture was first incubated with 100 uM DBCO-TAMRA at room temperature for 2 h and then denatured in the presence of loading dye. After resolved by SDS-PAGE, the gel was first observed in the fluorescence channel, and then stained with Coomassie Brilliant Blue dye.
Characterization of IgG or IgG Fc modification by MALDI-TOF MS. To characterize Fc region, 5 μg protein sample was used. Firstly, Fc was treated in the presence of TCEP (20 mM) at 60° C. for 10 min. Then, the sample was acidified with TFA at a pH of <4. After prewetting, C4 ZipTip was equilibrated with water (0.1% TFA). Binding of Fc was realized by aspirating and dispensing sample 7 to 10 cycles. The tip was next washed 3 times and eluted by 5 μL 70% acetonitrile/water solution with 0.1% TFA. Now the sample was ready for MALDI-TOF MS analysis. For characterization of modified Fc region, the reaction was first quenched by acidification (For acid labile antibodies, the peptide f-F0 could be used to quench the reaction.). After coupling with DBCO-TAMRA, the sample was reduced. Then, the sample was desalted and concentrated by using the same procedure. […] Next the sample was purified by HPLC with C4 column, and peaks were collected and lyophilized. The sample was dissolved in 50% acetonitrile/water solution with 0.1% TFA and subjected to MALDI-TOF MS analysis.

[1] = Hydrolysis of peptide ester monitored by HPLC; assay type: physicochemical
Description: as §1

rabbit IgG = assay: Target selectivity of peptide-driven acetylation towards IgG from different species (rabbit); assay type: biochemical; settings: 4 μM protein, 24 μM F1, PBS pH 7.4, 37° C., 1 h
Description: (§3) FIG. 10 Target selectivity of peptide-driven acetylation towards IgG from different species. Reaction condition: 4 μM protein, 24 μM F1, PBS buffer (pH 7.4), at 37° C. for 1 h. The reactions were quenched with 1% SDS and DBCO-TAMRA was added at room temperature for 1.5 h for copper-free click chemistry. […] Each lane contains […] of antibodies.
as §2

IgG Fc from mice = assay: Target selectivity of peptide-driven acetylation towards IgG from different species (mouse); assay type: biochemical; settings: 4 μM protein, 24 μM F1, PBS pH 7.4, 37° C., 1 h
Description: as §3, §2

[2] = tested on: IgG Fc in a protein mixture of HeLa cell lysate; settings: Fc-spiked HeLa cell lysate, RIPA lysis buffer pH 7.4, 37° C., 1 h, 6-fold excess of peptide
Description: Fc protein was spiked to a mixture of proteins from HeLa cell lysate, and the F1 peptide was added to the lysate to initiate acetylation reaction. […] Reactions were performed in pH 7.4 RIPA lysis buffer at 37° C. for 1 h with a 6-fold excess of peptides, followed by copper-free click chemistry with DBCO-TAMRA. Then the reactions were analyzed by denaturing SDS-PAGE and imaged using in-gel fluorescence scanning and Coomassie blue staining.

atezolizumab [3] = target: T1, atezolizumab (Homo sapiens, UniProt P01857, D239E/L241M/N180A); assay: Acetylation of atezolizumab by peptide F1, MALDI-TOF MS / SDS-PAGE; assay type: biochemical; design: purchased SelleckChem A2004; settings: for heavy chain modified: 4 μM Atezo, 24 μM F1, PBS pH 7.4, 37° C., MALDI-TOF MS
Description: (FIG. 4A) Acetylation reaction monitored by SDS-PAGE and fluorescent scanning. Reaction condition: 4 μM Atezo, 24 μM F1, PBS buffer (pH 7.4), at 37° C. for 1 h. The reactions were quenched with 1% SDS and DBCO-TAMRA was added at room temperature for 1.5 h for SPAAC reaction before SDS-PAGE and in-gel fluorescent imaging. […] (FIG. 4C) In-gel digestion for MALDI-TOF MS analysis to identify the acetylation site. Modified Lys 248 was marked in red. L chain: light chain, H chain: heavy chain, M-H chain: modified heavy chain, Atezo: atezolizumab.
as §2
Characterization of IgG or IgG Fc modification by MALDI-TOF MS. To characterize Fc region, 5 μg protein sample was used. Firstly, Fc was treated in the presence of TCEP (20 mM) at 60° C. for 10 min. Then, the sample was acidified with TFA at a pH of <4. After prewetting, C4 ZipTip was equilibrated with water (0.1% TFA). Binding of Fc was realized by aspirating and dispensing sample 7 to 10 cycles. The tip was next washed 3 times and eluted by 5 μL 70% acetonitrile/water solution with 0.1% TFA. Now the sample was ready for MALDI-TOF MS analysis. For characterization of modified Fc region, the reaction was first quenched by acidification (For acid labile antibodies, the peptide f-F0 could be used to quench the reaction.). After coupling with DBCO-TAMRA, the sample was reduced. Then, the sample was desalted and concentrated by using the same procedure. […]

atezolizumab [4] = target: T1, atezolizumab; assay: biochemical
Description: Ligand-induced fluorescence change was used to determine the Kd value. (FIG. 13A) Dose response curve. (FIG. 13B) Capillary scans. (FIG. 13C) MST traces.
Ligand-induced fluorescence change was used to determine the Kd value. (FIG. 14A) Dose response curve. (FIG. 14B) Capillary scans. (FIG. 14C) MST traces.
Ligand-induced fluorescence change was used to determine the Kd value. (FIG. 15A) Dose response curve. (FIG. 15B) Capillary scans. (FIG. 15C) MST traces.
Microscale thermophoresis (MST) binding experiments. […] The measurements were performed in phosphate buffered saline supplemented with 0.05% Tween-20 (PBS-T). […] The measurements were performed on a NanoTemper Technologies Monolith NT.115 instrument. The settings of MST power was medium and LED power was Auto-detect.

[5] = 4 μM IgG Fc, 24 μM peptide, 37° C., PBS buffer (pH 7.4) for 2 h
[6] = 4 μM IgG Fc, 24 μM peptide, 37° C., borate buffer (pH 8.5) for 15 h

T1 sequence (P01857 whole entry N180A/D239E/L241M, looked up, other chains not shown): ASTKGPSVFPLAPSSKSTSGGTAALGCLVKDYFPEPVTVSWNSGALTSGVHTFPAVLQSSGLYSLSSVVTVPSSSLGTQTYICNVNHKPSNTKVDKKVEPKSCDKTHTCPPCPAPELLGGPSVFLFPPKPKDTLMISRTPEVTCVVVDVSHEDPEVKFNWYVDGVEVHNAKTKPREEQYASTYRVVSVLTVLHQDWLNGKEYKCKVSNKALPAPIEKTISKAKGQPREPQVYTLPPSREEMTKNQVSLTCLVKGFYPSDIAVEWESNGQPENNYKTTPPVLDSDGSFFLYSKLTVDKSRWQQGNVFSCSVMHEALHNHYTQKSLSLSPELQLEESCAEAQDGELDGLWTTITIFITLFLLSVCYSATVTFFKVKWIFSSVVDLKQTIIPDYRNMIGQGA

## CC(=O)N[C@@H](CC(=O)O)C(=O)N[C@H]1CNC(=O)CSC[C@@H](C(=O)N[C@H](C(N)=O)[C@@H](C)O)NC(=O)[C@H](Cc2c[nH]c3ccccc23)NC(=O)[C@H](C(C)C)NC(=O)[C@H](CC(C)C)NC(=O)[C@H](CCC(=O)Nc2ccc(OC(=O)CN=[N+]=[N-])cc2)NC(=O)CNC(=O)[C@H](CC(C)C)NC(=O)[C@H](Cc2c[nH]cn2)NC(=O)[C@H](Cc2c[nH]c3ccccc23)NC(=O)[C@H](C)NC1=O [F1]
Human IgG Fc; 4 μM IgG Fc, 24 μM F1, PBS buffer pH 7.4, 37° C.
  time to 50% completion of the acetylation reaction: less than 30 min
Human IgG Fc; IgG Fc 2 μM to 20 μM, F1:IgG Fc ratio 6:1, PBS pH 7.4, 37° C.
  acetylation reaction conversion within 1 h: > 50%
Human IgG Fc; human, 4 μM protein, 24 μM F1, PBS pH 7.4, 37° C., 1 h
  reactivity with IgG Fc by species: only reacted with human and rabbit IgG Fcs
[1]; basic condition (pH 8.5)
  stability of peptide: extremely unstable at basic condition
[1]; in 1 h at pH 7.4, PBS, 37° C., 24 μM, absence of IgGs
  peptide ester lost by hydrolysis: about 70%
Rabbit IgG
  reactivity with IgG Fc by species: only reacted with human and rabbit IgG Fcs
IgG Fc from mice
  reactivity with IgG Fc by species: not the IgG Fc from mice
[2]
  selectivity of acetylation in a complex protein mixture: selectively acetylate IgG Fc in a protein mixture of HeLa cell lysate without an appreciable level of background reactions
Atezolizumab [3]; 37° C. for 1 h
  chain selectivity of acetylation: acetylated the heavy chain only
Atezolizumab [3]; in 15 minutes
  heavy chain modified: ~50%
Atezolizumab [3]; in 1 h
  heavy chain modified: ~80%

## CC(=O)N[C@@H](CC(=O)O)C(=O)N[C@H]1CNC(=O)CSC[C@@H](C(=O)N[C@H](C(N)=O)[C@@H](C)O)NC(=O)[C@H](Cc2c[nH]c3ccccc23)NC(=O)[C@H](C(C)C)NC(=O)[C@H](CC(C)C)NC(=O)C(CCC(=O)Nc2cccc(OC(=O)CN=[N+]=[N-])c2)NC(=O)CNC(=O)[C@H](CC(C)C)NC(=O)[C@H](Cc2c[nH]cn2)NC(=O)[C@H](Cc2c[nH]c3ccccc23)NC(=O)[C@H](C)NC1=O (some centres unmarked) [F6]
Human IgG Fc; 3-aminophenol linker instead of 4-aminophenol
  acetylation yield compared with F1: markedly decreased the acetylation yield

## CC(=O)N[C@@H](CC(=O)O)C(=O)N[C@H]1CNC(=O)CSC[C@@H](C(=O)N[C@H](C(N)=O)[C@@H](C)O)NC(=O)[C@H](Cc2c[nH]c3ccccc23)NC(=O)[C@H](C(C)C)NC(=O)[C@H](CC(C)C)NC(=O)[C@H](CCC(=O)Nc2ccc(OC(C)=O)cc2)NC(=O)CNC(=O)[C@H](CC(C)C)NC(=O)[C@H](Cc2c[nH]cn2)NC(=O)[C@H](Cc2c[nH]c3ccccc23)NC(=O)[C@H](C)NC1=O [F7]
Human IgG Fc; [5]
  yield of the labeled Fc: about 41%
Human IgG Fc; [6]
  yield of the labeled Fc: 90%

## C#CCCC(=O)Oc1ccc(NC(=O)CC[C@@H]2NC(=O)CNC(=O)[C@H](CC(C)C)NC(=O)[C@H](Cc3c[nH]cn3)NC(=O)[C@H](Cc3c[nH]c4ccccc34)NC(=O)[C@H](C)NC(=O)[C@@H](NC(=O)[C@H](CC(=O)O)NC(C)=O)CNC(=O)CSC[C@@H](C(=O)N[C@H](C(N)=O)[C@@H](C)O)NC(=O)[C@H](Cc3c[nH]c4ccccc34)NC(=O)[C@H](C(C)C)NC(=O)[C@H](CC(C)C)NC2=O)cc1 [F8]
Human IgG Fc; [5]
  yield of the labeled Fc: about 17%
Human IgG Fc; [6]
  yield of the labeled Fc: 84%

## CC(=O)N[C@@H](CC(=O)O)C(=O)N[C@H]1CNC(=O)CSC[C@@H](C(=O)N[C@H](C(N)=O)[C@@H](C)O)NC(=O)[C@H](Cc2c[nH]c3ccccc23)NC(=O)[C@H](C(C)C)NC(=O)[C@H](CC(C)C)NC(=O)C(CCC(=O)Nc2ccc(OC(=O)CCCC[C@@H]3SC[C@@H]4NC(=O)N[C@@H]43)cc2)NC(=O)CNC(=O)[C@H](CC(C)C)NC(=O)[C@H](Cc2c[nH]cn2)NC(=O)[C@H](Cc2c[nH]c3ccccc23)NC(=O)[C@H](C)NC1=O (some centres unmarked) [F9]
Human IgG Fc; [5]
  yield of the labeled Fc: about 18%
Human IgG Fc; [6]
  yield of the labeled Fc: 73%

## CC(=O)N[C@@H](CC(=O)O)C(=O)N[C@H]1CNC(=O)CSC[C@@H](C(=O)N[C@H](C(N)=O)[C@@H](C)O)NC(=O)[C@H](Cc2c[nH]c3ccccc23)NC(=O)[C@H](C(C)C)NC(=O)[C@H](CC(C)C)NC(=O)[C@H](CCC(=O)Nc2ccc(OC(=O)c3ccc(C(=O)c4ccccc4)cc3)cc2)NC(=O)CNC(=O)[C@H](CC(C)C)NC(=O)[C@H](Cc2c[nH]cn2)NC(=O)[C@H](Cc2c[nH]c3ccccc23)NC(=O)[C@H](C)NC1=O [F10]
Human IgG Fc; [5]
  yield of the labeled Fc: about 5%
Human IgG Fc; 4 μM IgG Fc, 24 μM peptide, 37° C., PBS pH 7.4 2 h or borate pH 8.5 15 h
  mass shift of Fc after reaction (MALDI-TOF MS): No obvious mass shift was observed
Human IgG Fc; [6]
  yield of the labeled Fc: 26%

## CC(C)C[C@@H]1NC(=O)[C@H](Cc2c[nH]cn2)NC(=O)[C@H](Cc2c[nH]c3ccccc23)NC(=O)[C@H](C)NC(=O)[C@@H](NC(=O)[C@H](CC(=O)O)NC(=O)CCNC(=O)CNC(=S)Nc2ccc(-c3c4ccc(=O)cc-4oc4cc(O)ccc34)c(C(=O)O)c2)CNC(=O)CSC[C@@H](C(=O)N[C@H](C(N)=O)[C@@H](C)O)NC(=O)[C@H](Cc2c[nH]c3ccccc23)NC(=O)[C@H](C(C)C)NC(=O)[C@H](CC(C)C)NC(=O)[C@H](CCC(=O)Nc2ccc(O)cc2)NC(=O)CNC1=O [f-F4] (X1-G[βAla]D[Dap]AWHLGE(X2)LVWCT-NH2; linker 4-14 via X3)
Atezolizumab [4]
  Kd: 1500 nM

## CC(C)C[C@@H]1NC(=O)[C@H](Cc2c[nH]cn2)NC(=O)[C@H](Cc2c[nH]c3ccccc23)NC(=O)[C@H](C)NC(=O)[C@@H](NC(=O)[C@H](CC(=O)O)NC(=O)CCNC(=O)CNC(=S)Nc2ccc(-c3c4ccc(=O)cc-4oc4cc(O)ccc34)c(C(=O)O)c2)CNC(=O)CSC[C@@H](C(=O)N[C@H](C(N)=O)[C@@H](C)O)NC(=O)[C@H](Cc2c[nH]c3ccccc23)NC(=O)[C@H](C(C)C)NC(=O)[C@H](CC(C)C)NC(=O)[C@H](CCC(=O)Nc2ccc(NC(=O)CN=[N+]=[N-])cc2)NC(=O)CNC1=O [f-F5] (X1-G[βAla]D[Dap]AWHLGE(X4)LVWCT-NH2; linker 4-14 via X3)
Atezolizumab [4]
  Kd: 2000 nM
